US5185442A, “New diazepines substituted in the 6-position, processes for their preparation and their use as pharmaceutical compositions” (Boehringer Ingelheim KG, priority 1991, dated 1993)

Biological target: T1, PAF receptor (vital human blood platelets) (Homo sapiens, UniProt P25105)
T1 construct: endogenous in cells; host or cells: vital human blood platelets (thrombocytes) from blood samples of healthy donors, purified on Sepharose CL-2B
Assay: [3H]PAF receptor binding to vital human blood platelets
Details: [3H]PAF 30 pmolar, 90 minutes, ambient temperature, Ki calculated from IC50
Description: [^3 H]PAF receptor binding to vital human blood platelets
This experiment determined the competitive interaction of the test substances (in this case PAF-antagonists) with the known interaction of the radioligand [^3 H]PAF to the same receptor.
The bonding studies were carried out on vital human thrombocytes. Blood samples from healthy donors were diluted with ACD buffer and centrifuged (15 minutes, 160×g). The platelet-rich plasma was purified by chromatography on Sepharose CL-2B (for eluting: HEPES buffer, pH 7.4, 20° C.).
Defined quantities (e.g., 800 μl) of the platelet suspension were incubated for 90 minutes at ambient temperature with:
a) a 30 pmolar [^3 H]PAF solution diluted with buffer;
b) a 30 pmolar [^3 H]PAF solution which simultaneously contains a μmolar (non-labelled) PAF solution; and
c) a 30 pmolar [^3 H]PAF solution and the solutions of the test substances (different concentrations).
Incubation a) was used to determine total binding. Incubation b) was used to determine non-specific binding.
The reaction was stopped by vacuum filtering. The filters with the blood platelets were mixed with scintillation liquid and the residual radioactivity was measured in a counter. The specific binding was obtained from the total binding minus the non-specific binding. […]

T1 sequence (P25105 whole entry): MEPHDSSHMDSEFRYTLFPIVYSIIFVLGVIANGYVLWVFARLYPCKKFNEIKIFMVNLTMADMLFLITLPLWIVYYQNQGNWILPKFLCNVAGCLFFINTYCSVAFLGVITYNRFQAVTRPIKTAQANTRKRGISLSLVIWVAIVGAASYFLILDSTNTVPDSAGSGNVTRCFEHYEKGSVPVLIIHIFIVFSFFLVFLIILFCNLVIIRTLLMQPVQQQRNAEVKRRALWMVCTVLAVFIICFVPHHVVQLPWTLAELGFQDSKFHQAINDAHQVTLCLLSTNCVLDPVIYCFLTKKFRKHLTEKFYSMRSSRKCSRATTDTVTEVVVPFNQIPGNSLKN

Structure (SMILES)	Ki [pM]
Cc1nnc2n1-c1sc3c(c1C(c1ccc(CCc4ccc(C(F)(F)F)cc4)cc1)=NC2C)CCC3 (racemic) [Compound 1]	790
Cc1nnc2n1-c1sc3c(c1C(c1ccc(CCc4ccc(C(F)(F)F)cc4)cc1)=N[C@H]2C)CCC3 [Compound 2]	470
